Experiments:
[1] = biological target: topoisomerase (DNA) II alpha (TOP2A) (Homo sapiens, UniProt P11388); experiment: surface plasmon resonance; type: binding
PARP1 = PARP1 (Homo sapiens, UniProt P09874); experiment: surface plasmon resonance; type: binding
Sequence of PARP1 (P09874 2-1014): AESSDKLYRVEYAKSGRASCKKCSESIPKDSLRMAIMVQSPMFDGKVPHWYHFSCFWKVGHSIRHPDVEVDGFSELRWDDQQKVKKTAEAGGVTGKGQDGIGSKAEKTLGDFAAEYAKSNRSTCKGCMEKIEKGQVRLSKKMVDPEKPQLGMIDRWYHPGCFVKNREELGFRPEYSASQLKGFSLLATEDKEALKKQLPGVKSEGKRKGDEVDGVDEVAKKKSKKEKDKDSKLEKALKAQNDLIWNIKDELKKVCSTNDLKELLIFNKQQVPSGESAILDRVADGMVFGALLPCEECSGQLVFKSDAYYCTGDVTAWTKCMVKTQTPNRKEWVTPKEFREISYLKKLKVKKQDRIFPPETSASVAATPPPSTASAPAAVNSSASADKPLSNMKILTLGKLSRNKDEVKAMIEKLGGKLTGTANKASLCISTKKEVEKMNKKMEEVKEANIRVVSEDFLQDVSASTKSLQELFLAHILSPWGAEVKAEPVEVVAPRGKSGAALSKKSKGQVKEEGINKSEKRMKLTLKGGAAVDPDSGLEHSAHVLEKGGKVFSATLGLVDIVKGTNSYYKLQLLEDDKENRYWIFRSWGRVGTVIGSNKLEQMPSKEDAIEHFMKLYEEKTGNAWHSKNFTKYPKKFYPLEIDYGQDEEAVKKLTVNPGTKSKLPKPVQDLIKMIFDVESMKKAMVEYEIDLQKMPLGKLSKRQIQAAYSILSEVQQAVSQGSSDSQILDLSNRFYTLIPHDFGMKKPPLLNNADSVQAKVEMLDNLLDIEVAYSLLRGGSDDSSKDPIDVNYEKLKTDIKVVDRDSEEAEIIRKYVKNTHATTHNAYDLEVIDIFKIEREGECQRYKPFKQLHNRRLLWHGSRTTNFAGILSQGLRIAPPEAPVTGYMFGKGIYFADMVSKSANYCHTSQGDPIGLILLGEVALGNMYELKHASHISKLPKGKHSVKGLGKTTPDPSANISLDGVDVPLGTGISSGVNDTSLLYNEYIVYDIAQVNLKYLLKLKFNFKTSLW

Sequence of topoisomerase (DNA) II alpha (TOP2A) (P11388 whole entry): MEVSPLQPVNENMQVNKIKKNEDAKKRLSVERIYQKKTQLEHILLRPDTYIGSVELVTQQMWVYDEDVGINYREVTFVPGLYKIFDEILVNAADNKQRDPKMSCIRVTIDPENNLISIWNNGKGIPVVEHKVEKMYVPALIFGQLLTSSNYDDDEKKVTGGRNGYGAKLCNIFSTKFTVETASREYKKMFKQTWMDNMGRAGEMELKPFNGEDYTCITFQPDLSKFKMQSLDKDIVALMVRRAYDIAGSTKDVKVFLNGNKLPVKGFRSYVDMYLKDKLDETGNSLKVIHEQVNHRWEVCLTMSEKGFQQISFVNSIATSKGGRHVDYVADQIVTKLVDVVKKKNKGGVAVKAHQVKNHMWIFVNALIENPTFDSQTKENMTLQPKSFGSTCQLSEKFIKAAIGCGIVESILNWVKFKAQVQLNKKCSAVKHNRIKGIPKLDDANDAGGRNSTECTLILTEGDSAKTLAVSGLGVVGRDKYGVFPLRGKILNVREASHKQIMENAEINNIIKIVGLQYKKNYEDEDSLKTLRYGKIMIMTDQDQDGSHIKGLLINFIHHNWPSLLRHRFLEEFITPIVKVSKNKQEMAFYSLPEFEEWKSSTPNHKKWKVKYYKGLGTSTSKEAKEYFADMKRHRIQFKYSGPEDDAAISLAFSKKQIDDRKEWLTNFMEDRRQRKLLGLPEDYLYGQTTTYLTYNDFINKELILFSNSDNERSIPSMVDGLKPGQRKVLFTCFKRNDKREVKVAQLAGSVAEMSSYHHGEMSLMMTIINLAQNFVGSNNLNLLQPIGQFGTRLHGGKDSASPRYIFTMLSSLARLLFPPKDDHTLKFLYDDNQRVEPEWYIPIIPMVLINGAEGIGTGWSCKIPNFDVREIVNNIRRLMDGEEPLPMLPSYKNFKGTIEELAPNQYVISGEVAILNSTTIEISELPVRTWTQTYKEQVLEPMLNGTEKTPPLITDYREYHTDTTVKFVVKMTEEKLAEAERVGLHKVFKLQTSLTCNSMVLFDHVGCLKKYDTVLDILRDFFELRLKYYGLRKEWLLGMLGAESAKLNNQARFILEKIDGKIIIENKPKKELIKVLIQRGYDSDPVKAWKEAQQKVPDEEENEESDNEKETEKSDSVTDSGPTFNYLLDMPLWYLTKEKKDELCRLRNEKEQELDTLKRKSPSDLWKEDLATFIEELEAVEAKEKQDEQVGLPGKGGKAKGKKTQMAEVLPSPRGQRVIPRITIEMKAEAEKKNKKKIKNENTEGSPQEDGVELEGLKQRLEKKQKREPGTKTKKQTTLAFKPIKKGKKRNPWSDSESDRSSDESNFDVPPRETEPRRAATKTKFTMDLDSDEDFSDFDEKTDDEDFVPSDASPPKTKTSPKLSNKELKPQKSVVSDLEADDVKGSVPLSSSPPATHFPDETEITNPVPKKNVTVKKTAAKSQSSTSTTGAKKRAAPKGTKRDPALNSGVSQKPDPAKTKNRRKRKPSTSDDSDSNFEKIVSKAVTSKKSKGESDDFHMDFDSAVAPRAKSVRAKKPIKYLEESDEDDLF

Olaparib-TCO
Kd [1]: ~3.7 nM
Kd (PARP1): 22 nM

Reference: PMC3856564 (Angewandte Chemie (International ed. in English), 2013)
